The results in this text go back to PMC9881724, “Rational design of potent ultrashort antimicrobial peptides with programmable assembly into nanostructured hydrogels” (Frontiers in Chemistry, 2023).

SMILES strings stand for the structures. In brackets after ≈: the same amount, converted by molar mass. Residues, ends and D or L forms follow the SMILES beside them. *: point of attachment. Fmoc = O=C(OCC1c2ccccc2-c2ccccc21)*

Data set [1] is described as follows: Self-assembly and hydrogelation in water (electron microscopy, rheology, observation). It is filed as physicochemical. How it is done:
(§1) The peptides were prepared by mixing the lyophilized peptide directly with type 1 water, vortexed for a few seconds to obtain an isotropic solution and stored at 4°C–5°C in between experiments.
Carbon-coated grids (EMSCF200H-CU-TH, ProSciTech) were glow discharged to render them hydrophilic. A 1–5 μl aliquot of sample was applied to an upturned grid held in anti-capillary forceps, over moist filter paper, and left for 5 min over moistened filter paper to adsorb. Excess liquid was then removed with filter paper, the grid was then inverted onto a drop of 2% PTA stain, pH 6.9 on Parafilm, for 1 min. […] Images were recorded using a FEI Eagle 4 k × 4 k CCD camera and AnalySIS v3.2 camera control software (Olympus).
A laboratory-built humidity-controlled vitrification system was used to prepare the samples for Cryo-TEM. […] Images were recorded using a FEI Eagle 4 k × 4 k CCD camera at a range of magnifications using AnalySIS v3.2 camera control software (Olympus).
Rheology was undertaken on a calibrated rheometer (Anton Paar MCR 301, Anton Paar Pty. Ltd. Austria) fitted with a 15 mm cone plate fixture with a cone angle of 1° (CP15-1, Anton Paar Pty. Ltd. Austria). […] All measurements were carried out in triplicate with the mean and standard deviation shown, calculated and plotted in GraphPad Prism.

Another data set relates to S. aureus ATCC 25923. It is filed as cell-based. The settings on record: ATCC 25923, 1 h. The source says: (§2) Indolicidin (sequence: ILPWKWPWWPWRR-NH2, molecular weight: 1,906.3 g/mol) and FMOC-WWRR-NH2 (molecular weight: 924.1) were obtained from ChemPep (USA) as lyophilized powder and acetate salts with a purity >95%. Ethanol and Congo red were purchased from Sigma-Aldrich (Australia). Sodium chloride was purchased from Alfa Aesar (United Kingdom). The negative staining agent phosphotungstic acid was purchased from Proscitech (Australia). A Milipore filter system was utilized to obtain Milli-Q water. BD Difco Mueller Hinton Broth (MHB) and Sabouraud broth (SB) were purchased from Cell biosciences (Australia). Strains: E. coli NCTC 10418, P. aeruginosa ATCC 9721, E. faecalis ATCC 19433, S. aureus ATCC 25923, S. aureus ATCC BAA-1756 (methicillin resistant), Streptococcus pneumoniae ATCC 49619, Candida albicans ATCC 10231 and Candida auris DSM 21092 (Fluconazole resistant) were provided by the RMIT microbial culture collection. Bacterial strains were stored in 50% glycerol at −20 and −80°C.
(§3) Minimal inhibitory concentration (MIC) assays were performed following a standard broth dilution procedure ([Wiegand et al., 2008]) in which bacteria were grown in MHB and fungal in SB overnight. The overnight bacterial suspension was adjusted to 10^6 CFU/ml in broth according to MacFarlane standard. Bacterial solutions were mixed in 96-well plates with the peptide solution to reach final concentrations of peptides ranging from 1,082 to 2 μM, including inhibition control (Indolicidin), growth control, and sterility control. Within each MIC experiment, each peptide was tested in triplicate across this concentration range and repeated on 3 independent days. Media and glassware were sterilized at 120°C for 1 h with an autoclave prior to all bioassays.

A further data set deals with E. coli NCTC 10418. In kind it is cell-based. The settings on record: NCTC 10418, 1 h.
Text: as §2, §3

For the next data set, the system named is E. faecalis ATCC 19433. It is filed as cell-based. The settings on record: ATCC 19433, 1 h.
Text: as §2, §3

Data set [2] deals with Candida auris DSM 21092 (Fluconazole resistant). It is filed as cell-based. To be noted: DSM 21092, 1 h.
Text: as §2, §3

The test system of data set [3] is S. aureus ATCC BAA-1756 (methicillin resistant). It is filed as cell-based. To be noted: ATCC BAA-1756, 1 h.
Text: as §2, §3

Data set [4] deals with Candida albicans ATCC 10231. In kind it is cell-based. The settings on record: ATCC 10231, 1 h.
Text: as §2, §3

For the next data set, the system named is P. aeruginosa ATCC 9721. In kind it is cell-based. To be noted: ATCC 9721, 1 h.
Text: as §2, §3

Data set [5] relates to Streptococcus pneumoniae ATCC 49619. It is filed as cell-based. The settings on record: ATCC 49619, 1 h.
Text: as §2, §3

Data set [6] in a line: Peptide assembly state from ATR-FTIR arginine side-chain vibrations. In kind it is physicochemical. To be noted: ATR-FTIR 25°C. The procedure:
as §1
Data was recorded at 25°C using a Tensor-II spectrometer (Bruker, Germany) equipped with a Bio-ATR attachment (Bruker, Germany) by directly depositing the samples on the ATR crystal as previous reported by our group ([Dharmadana et al., 2019]). Spectra were collected over 32 scans within 4,000–400 cm^−1 wavenumber range at a resolution of 4 cm^−1. Associated water signal was subtracted from the resulting spectra, and secondary derivatives were calculated using OPUS software (Bruker, Germany).

Take `N=C(N)NCCC[C@H](NC(=O)[C@H](CCCNC(=N)N)NC(=O)[C@H](Cc1c[nH]c2ccccc12)NC(=O)[C@@H]1CCCN1C(=O)[C@H](Cc1c[nH]c2ccccc12)NC(=O)OCC1c2ccccc2-c2ccccc21)C(N)=O` [P-Priscilicidin, Fmoc-WPWRR-NH2] (Fmoc-WPWRR-NH2): the “Nanostructures imaged by electron microscopy” value in data set [1] (10% wt in water, 1 month incubation, in coexistence with globular oligomers) is recorded as “nanoribbons”. For the same compound, the “State of aqueous samples (rheology summary)” value in data set [1] (peptide in water, oscillatory rheology G'/G'') was “colloidal solutions of low viscosity”. The “MIC S. aureus” value against S. aureus ATCC 25923 stood at 31 µM (≈ 31.7 µg/mL). The “MIC E. coli” value with E. coli NCTC 10418 was 122 µM (≈ 125 µg/mL). Further, the “MIC E. faecalis” value in the data set on E. faecalis ATCC 19433 is 61 µM (≈ 62.3 µg/mL). Besides, the “MIC C. auris Fluconazole resistant” value in data set [2] came to 31 µM (≈ 31.7 µg/mL). Besides, in data set [3], the “MIC S. aureus Methicillin resistant” value worked out at 61 µM (≈ 62.3 µg/mL). In addition, the “MIC C. albicans” value in data set [4] was found to be 15 µM (≈ 15.3 µg/mL). Further, in the data set on P. aeruginosa ATCC 9721, the “MIC P. aeruginosa” value came to 61 µM (≈ 62.3 µg/mL). The “MIC S. pneumoniae” value in data set [5] was 31 µM (≈ 31.7 µg/mL). Besides, the “Interpretation for peptide assembly according to MD” value in [6] (1 % wt in water, 30 days after mixing) was “monomer/globular oligomer”; in data set [6] (1 % wt in water, time after mixing 0), “monomer/globular oligomer”; in data set [6] (5 % wt in water, 30 days after mixing) it was “monomer/globular oligomer”; in data set [6] (5 % wt in water, time after mixing 0), “monomer/globular oligomer”; in [6] (10 % wt in water, 30 days after mixing), “monomer/globular oligomer”; in [6] (10 % wt in water, time after mixing 0), “monomer/globular oligomer”.
